Data: patent US5212072A, “Polypeptides complementary to peptides or proteins having an amino acid sequence or nucleotide coding sequence at least partially known and methods of design therefor” (Board of Regents, The University of Texas System, priority 1991, dated 1993)
Blank lines part the entries; values can stand above or below the compound they belong to. Where no end group is shown, it is not given here.

Experiments:
female ICR mice = experiment: Induction of catatonia in mice by i.c. injection of serum; type: in vivo; details: simultaneous i.c. injection 0.2 mg
Text: It is well known that large doses of opiate-like substances can induce a catatonic state in animals which is inhibited or reversed by treatment with the opiate antagonist naloxone. In analogy with the results in earlier examples, the ability of a peptide (qamma-ODNE) complementary to an opiate peptide, qamma-endorphin, to induce antibodies that have opiate properties was examined.
Gamma-ODNE (Example II) was conjugated to Keyhole Limpet Hemocyanin ([…]) and used with Freund's adjuvant to generate rabbit antibodies in a conventional manner (see Example 1F). Both normal and induced rabbit sera were injected intracerebroventicularly (i.c.) into female ICR mice.

[1] = system: mouse adrenal tumor (Y-1) cells; experiment: Binding of anti-HTCA to affixed mouse adrenal tumor (Y-1) cells; details: absorbency at 405 nM; FIG. 5
Procedure: Mouse adrenal tumor (Y-1) cells were affixed by glutaraldehyde in flat bottom wells of a microtiter plate. The affixed cells were then treated with rabbit anti-KLH or rabbit anti-HTCA alone or in the presence of several levels of ACTH. After washing, the microtiter wells were treated with goat antibody to rabbit immunoglobulin the goat antibody being coupled to the enzyme alkaline phosphatase. After washing away unbound antibody-phosphatase complex, p-nitrophenyl phosphate was added and the enzyme dependent development of absorbency at 405 nM was monitored. […] ACTH and anti-HTCA appeared competitive for the same binding site on the mouse adrenal tumor (Y-1) cells. Rabbit anti KLH had no effect (shaded region)

HTCA = experiment: Solid phase radiobinding assay for serum ACTH on HTCA-coated wells; type: binding; details: for Log10 Dilution at 50% inhibition: graphic interpolation
Procedure: Complementary peptide (HTCA) was dissolved in phosphate buffered saline (PBS) at 1 mg/ml and 200 ul aliquots were placed in wells of a 96 well polyvinyl assay plate (Microtest III, Falcon Cat. #3911). HTCA was allowed to coat the wells overnight at 4° C. The coating solution was removed and the wells were washed three times with PBS. Radiolabeled ACTH (^125 I-ACTH, New England Nuclear NEX-65) was diluted into PBS containing 0.0005% TWEEN-20 so as to deliver 50 pg (or about 30,000 cpm) in a 20 ul volume.
Serum samples were prepared in a 96 well tissue culture plate by serial dilution of serum into PBS/TWEEN 20 to give a final volume of 180 ul/well. The serum samples were then transferred to the HTCA coated a ssay plate and allowed to incubate. Finally, 20 ul of ^125 I-ACTH solution was added, incubated, and the total sample of 200 ul was removed. After washing three times with PBS, the wells were cut from the plate and counted in a gamma counter.
Serum samples used in this study contained either 50 pg/ml or 500 pg/ml of ACTH added to fetal calf serum (FCS).

[2] = target: T1, mouse adrenal tumor cell ACTH receptor (Mus musculus, UniProt Q64326); experiment: Glucocorticoid hormone production by mouse adrenal tumor (Y-1) cells; type: cell-based; details: ACTH 10 microunits/well, 18 hrs
T1 construct: Duplicate cultures of mouse adrenal tumor (Y-1) cells in microtiter plates; endogenous in cells; host or cells: mouse adrenal tumor (Y-1) cells
Procedure: An induction of glucocorticoid hormone production by ACTH and anti-HTCA was found with cultured mammalian cells. Duplicate cultures of mouse adrenal tumor (Y-1) cells in microtiter plates were treated with culture media, ACTH (10 microunits/well) or various dilutions of the anti-HTCA.
^a Duplicate cultures of mouse adrenal (Y1) cells in microtiter plate
were treated with culture media, ACTH (10 microunits/well) or the
indicated dilutions of antibody to HTCA. After 18 hrs incubation at
37° in 4% CO2, replicate cultures were pooled and assayed for
glucocorticoid hormone production by a radioimmunoassay (RIA) for […]

bovine gamma-endorphin = target: T2, bovine gamma-endorphin (Bos taurus, UniProt P01190); experiment: ELISA binding of gamma-endorphin to coated wells; details: gamma-odne 40 ug/well vs insulin or BSA; absorbance 405 nm; FIG. 7
T2 construct: purchased Boehringer Mannheim (Indianapolis, Ind.); host or cells: chemical synthesis
Procedure: Synthetic bovine gamma-endorphin was obtained from Boehringer Mannheim (Indianapolis, Ind.) and rabbit antibody for synthetic gamma-endo was obtained from Accurate Biochemicals (Westbury, N.Y.).
The wells of a 96-well round-bottomed microtiter plate were coated (by the procedure described in Example 1B) with gamma-odne (40 ug/well), insulin (20U/well) or bovine serum albumin (BSA,200 ug/well . Varying concentrations of gamma-endorphin (as shown on the abscissa in FIG. 7) were incubated in the coated wells for 1 hr, after which the plates were thrice washed with PBS-Tween buffer. The wells were then treated with rabbit antibody for gamma-endorphin, washed, and then treated with goat antibody against rabbit immunoglobulin the goat antibody being conjugated to alkaline phosphatase. After washing away unbound goat antibody conjugate, the bound alkaline phosphatase activity was measured with p-nitrophenylphosphate as earlier described. The results of the above manipulations are shown in FIG. 7 where the extent of absorbance at 405 nm reflects the degree of gamma-endorphin binding to wells coated with gamma-odne, insulin or BSA. […] The shaded area in FIG. 7 represents the extent of gamma-endorphin binding in the presence of soluble excess of gamma-odne. Thus it is shown that a second pair of complementary peptides interacts in a manner showing affinity and apparent congruence.

[3] = system: opiate receptors on NG108-15 cells; experiment: Inhibition of 125I-beta-endorphin binding to NG108-15 cells; details: 125I-beta-endorphin 10^-11 M
Text: NG108-15 cells are known to contain receptors for beta-endorphin called opiate receptors. In addition to beta-endorphin, gamma-endorphin and several analogs of beta-endorphin bind to these opiate receptors. The peptide, gamma-ODNE, complementary to gamma-endorphin described in Example II was examined for its ability to inhibit the binding of ^125 I-beta-endorphin to opiate receptors on NG108-15 cells. Gamma-endorphin is a fragment of the larger peptide beta-endorphin.
Seventy percent of the total binding was specific by conventional criteria.
For this experiment, ^1251 -beta-endorphin was preincubated 30 minutes with various amounts of the complementary peptide, gamma-ODNE, before a 30 minute (37° C.) incubation with NG108-15 cells in microtiter wells. After the incubation, cells were washed 3 times and cell associated radioactivity wad determined with a Packard Multi-Prias gamma counter.

HTCA, sequence (as listed by the source): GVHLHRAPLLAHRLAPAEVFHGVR
T1 sequence (Q64326 whole entry): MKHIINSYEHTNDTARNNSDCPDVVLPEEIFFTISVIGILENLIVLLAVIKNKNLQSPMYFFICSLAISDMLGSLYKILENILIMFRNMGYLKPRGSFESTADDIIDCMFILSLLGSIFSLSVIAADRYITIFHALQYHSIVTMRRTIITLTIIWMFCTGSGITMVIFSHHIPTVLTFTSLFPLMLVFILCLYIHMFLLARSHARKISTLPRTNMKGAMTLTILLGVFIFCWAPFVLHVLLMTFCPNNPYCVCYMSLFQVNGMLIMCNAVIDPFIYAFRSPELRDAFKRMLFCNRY
T1 sequence (Q9D159 whole entry partner): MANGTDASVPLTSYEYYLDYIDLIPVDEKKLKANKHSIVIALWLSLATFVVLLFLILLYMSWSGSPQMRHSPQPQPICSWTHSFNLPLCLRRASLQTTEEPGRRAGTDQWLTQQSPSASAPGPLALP

Compound: C=CCN1CC[C@]23c4c5ccc(O)c4O[C@H]2C(=O)CC[C@@]3(O)[C@H]1C5 [naloxone]
effect on serum-induced catatonia (female ICR mice): reversed

% Inhibition of Specific Binding (HTCA; 50 pg/ml ACTH in FCS, Log10 Dilution -0.5): 73% | % Inhibition of Specific Binding (HTCA; 50 pg/ml ACTH in FCS, Log10 Dilution -1.0): 40% | % Inhibition of Specific Binding (HTCA; 50 pg/ml ACTH in FCS, Log10 Dilution -1.5): 44% | % Inhibition of Specific Binding (HTCA; 50 pg/ml ACTH in FCS, Log10 Dilution -2.0): 9% | % Inhibition of Specific Binding (HTCA; 50 pg/ml ACTH in FCS, Log10 Dilution -2.5): 1% | % Inhibition of Specific Binding (HTCA; 50 pg/ml ACTH in FCS, Log10 Dilution -3.0): 0% | % Inhibition of Specific Binding (HTCA; 50 pg/ml ACTH in FCS, Log10 Dilution -3.5): 0% | Log10 Dilution at 50% inhibition (HTCA; 50 pg/ml serum sample): -1.1 | % Inhibition of Specific Binding (HTCA; 500 pg/ml ACTH in FCS, Log10 Dilution -0.5): 90% | % Inhibition of Specific Binding (HTCA; 500 pg/ml ACTH in FCS, Log10 Dilution -1.0): 77% | % Inhibition of Specific Binding (HTCA; 500 pg/ml ACTH in FCS, Log10 Dilution -1.5): 57% | % Inhibition of Specific Binding (HTCA; 500 pg/ml ACTH in FCS, Log10 Dilution -2.0): 53% | % Inhibition of Specific Binding (HTCA; 500 pg/ml ACTH in FCS, Log10 Dilution -2.5): 35% | % Inhibition of Specific Binding (HTCA; 500 pg/ml ACTH in FCS, Log10 Dilution -3.0): 32% | % Inhibition of Specific Binding (HTCA; 500 pg/ml ACTH in FCS, Log10 Dilution -3.5): 20% | Log10 Dilution at 50% inhibition (HTCA; 500 pg/ml serum sample): -2.0 | Corticosterone equivalents, Experiment 1 [2]: 1.08 µg/mL | Corticosterone equivalents, Experiment 2 [2]: 1.42 µg/mL
Compound: ACTH: Synthetic ACTH, fragment 1-24, from Organon; unlabelled ACTH competitor in binding assays
effect on binding of anti-HTCA to affixed Y-1 cells [1]: blocked binding of the anti-HTCA in a dose dependent manner

Compound: QRDKGRLALLGGHEPAV [gamma-odne, H2 N--gln--arg--asp--lys--gly--arg--leu--ala--leu--leu--gly--gly--his--glu--pro--ala--val--COOH]
gamma-endorphin binding to coated wells (in words) (bovine gamma-endorphin): significantly bound | % Inhibition of Specific 125I-beta-endorphin ([3]; 10^-4 M): 75.0 ± 0.6% | % Inhibition of Specific 125I-beta-endorphin ([3]; 10^-5 M): 36.0 ± 2.1% | % Inhibition of Specific 125I-beta-endorphin ([3]; 10^-6 M, 30 min preincubation): 24.7 ± 3.9%
